Test results published in ChEMBL document CHEMBL4002601, “A triple exon-skipping luciferase reporter assay identifies a new CLK inhibitor pharmacophore” (Bioorg Med Chem Lett, 2017).

Tests used:
[1] = molecular target: Receptor tyrosine-protein kinase erbB-2 (Homo sapiens) (UniProt P04626); test: Inhibition of human ErbB2 using poly(Glu, Tyr) as substrate in presence of [gamma-33P]ATP at 1 uM after 40 mins by scintillation counter method
[2] = molecular target: Serine/threonine-protein kinase PLK1 (Homo sapiens) (UniProt P53350); test: Inhibition of human Plk1 using casein as substrate in presence of [gamma-33P]ATP at 1 uM after 40 mins by scintillation counter method
Sequence of Serine/threonine-protein kinase PLK1 (Homo sapiens) (P53350 whole entry): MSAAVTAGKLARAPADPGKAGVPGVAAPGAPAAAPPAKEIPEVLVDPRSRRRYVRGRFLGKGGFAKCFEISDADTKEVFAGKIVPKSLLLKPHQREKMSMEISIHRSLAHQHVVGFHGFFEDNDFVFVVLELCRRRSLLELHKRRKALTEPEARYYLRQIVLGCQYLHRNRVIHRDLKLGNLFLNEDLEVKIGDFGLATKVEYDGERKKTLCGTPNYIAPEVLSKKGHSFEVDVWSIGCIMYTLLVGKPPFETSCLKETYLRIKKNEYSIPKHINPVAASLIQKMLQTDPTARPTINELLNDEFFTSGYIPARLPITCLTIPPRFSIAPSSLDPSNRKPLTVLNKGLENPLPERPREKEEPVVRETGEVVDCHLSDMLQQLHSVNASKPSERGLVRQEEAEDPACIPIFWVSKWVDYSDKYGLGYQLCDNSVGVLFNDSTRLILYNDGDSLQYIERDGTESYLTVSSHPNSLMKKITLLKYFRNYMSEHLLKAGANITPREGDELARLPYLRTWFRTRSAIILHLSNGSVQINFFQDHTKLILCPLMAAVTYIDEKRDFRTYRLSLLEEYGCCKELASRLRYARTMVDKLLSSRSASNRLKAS

[3] = molecular target: Mitogen-activated protein kinase 9 (Homo sapiens) (UniProt P45984); test: Inhibition of human JNK2alpha2 using ATF2 as substrate in presence of [gamma-33P]ATP at 1 uM after 40 mins by scintillation counter method
Sequence of Mitogen-activated protein kinase 9 (Homo sapiens) (P45984 whole entry, looked up): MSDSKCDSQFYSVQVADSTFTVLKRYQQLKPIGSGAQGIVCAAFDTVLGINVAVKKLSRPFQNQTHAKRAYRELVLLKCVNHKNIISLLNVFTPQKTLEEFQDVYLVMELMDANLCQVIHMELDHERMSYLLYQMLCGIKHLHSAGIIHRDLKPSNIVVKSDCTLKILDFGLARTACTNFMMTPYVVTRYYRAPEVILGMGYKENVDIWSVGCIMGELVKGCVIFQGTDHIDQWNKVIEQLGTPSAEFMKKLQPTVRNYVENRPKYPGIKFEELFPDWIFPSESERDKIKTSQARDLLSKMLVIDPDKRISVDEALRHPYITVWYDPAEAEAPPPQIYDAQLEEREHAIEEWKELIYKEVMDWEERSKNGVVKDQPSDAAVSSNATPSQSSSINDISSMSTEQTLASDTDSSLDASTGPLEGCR

[4] = molecular target: PI3K p110 beta/p85 alpha (Homo sapiens) (UniProt P27986+P42338); test: Inhibition of human PI3K p110beta/pI3K p85alpha at 1 uM using PIP2 as substrate in presence of biotinylated PIP3 and ATP and measured after 30 mins by HTRF method; type: protein-complex assay
Sequence of PI3K p110 beta/p85 alpha (Homo sapiens) (P27986 2-724 limits assumed): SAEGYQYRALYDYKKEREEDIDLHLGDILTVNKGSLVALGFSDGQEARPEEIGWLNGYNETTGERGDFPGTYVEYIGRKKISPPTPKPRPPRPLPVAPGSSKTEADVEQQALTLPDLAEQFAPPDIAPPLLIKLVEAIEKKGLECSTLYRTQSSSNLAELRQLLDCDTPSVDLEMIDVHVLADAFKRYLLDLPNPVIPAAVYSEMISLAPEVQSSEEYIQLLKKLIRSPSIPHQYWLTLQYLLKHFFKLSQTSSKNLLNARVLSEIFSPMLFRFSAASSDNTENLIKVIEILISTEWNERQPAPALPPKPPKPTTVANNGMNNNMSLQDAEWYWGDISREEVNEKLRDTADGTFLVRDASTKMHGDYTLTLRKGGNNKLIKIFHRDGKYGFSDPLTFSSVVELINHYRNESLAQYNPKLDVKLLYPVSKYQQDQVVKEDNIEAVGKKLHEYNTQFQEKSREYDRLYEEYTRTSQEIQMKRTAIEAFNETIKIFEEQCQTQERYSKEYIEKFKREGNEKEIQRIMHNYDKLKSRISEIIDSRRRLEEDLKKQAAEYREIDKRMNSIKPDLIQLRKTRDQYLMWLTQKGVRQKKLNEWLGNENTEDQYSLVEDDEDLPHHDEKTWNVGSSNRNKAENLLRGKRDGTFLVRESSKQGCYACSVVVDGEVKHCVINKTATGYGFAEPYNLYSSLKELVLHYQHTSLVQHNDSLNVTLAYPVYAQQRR
Sequence of PI3K p110 beta/p85 alpha (Homo sapiens) (P42338 whole entry partner): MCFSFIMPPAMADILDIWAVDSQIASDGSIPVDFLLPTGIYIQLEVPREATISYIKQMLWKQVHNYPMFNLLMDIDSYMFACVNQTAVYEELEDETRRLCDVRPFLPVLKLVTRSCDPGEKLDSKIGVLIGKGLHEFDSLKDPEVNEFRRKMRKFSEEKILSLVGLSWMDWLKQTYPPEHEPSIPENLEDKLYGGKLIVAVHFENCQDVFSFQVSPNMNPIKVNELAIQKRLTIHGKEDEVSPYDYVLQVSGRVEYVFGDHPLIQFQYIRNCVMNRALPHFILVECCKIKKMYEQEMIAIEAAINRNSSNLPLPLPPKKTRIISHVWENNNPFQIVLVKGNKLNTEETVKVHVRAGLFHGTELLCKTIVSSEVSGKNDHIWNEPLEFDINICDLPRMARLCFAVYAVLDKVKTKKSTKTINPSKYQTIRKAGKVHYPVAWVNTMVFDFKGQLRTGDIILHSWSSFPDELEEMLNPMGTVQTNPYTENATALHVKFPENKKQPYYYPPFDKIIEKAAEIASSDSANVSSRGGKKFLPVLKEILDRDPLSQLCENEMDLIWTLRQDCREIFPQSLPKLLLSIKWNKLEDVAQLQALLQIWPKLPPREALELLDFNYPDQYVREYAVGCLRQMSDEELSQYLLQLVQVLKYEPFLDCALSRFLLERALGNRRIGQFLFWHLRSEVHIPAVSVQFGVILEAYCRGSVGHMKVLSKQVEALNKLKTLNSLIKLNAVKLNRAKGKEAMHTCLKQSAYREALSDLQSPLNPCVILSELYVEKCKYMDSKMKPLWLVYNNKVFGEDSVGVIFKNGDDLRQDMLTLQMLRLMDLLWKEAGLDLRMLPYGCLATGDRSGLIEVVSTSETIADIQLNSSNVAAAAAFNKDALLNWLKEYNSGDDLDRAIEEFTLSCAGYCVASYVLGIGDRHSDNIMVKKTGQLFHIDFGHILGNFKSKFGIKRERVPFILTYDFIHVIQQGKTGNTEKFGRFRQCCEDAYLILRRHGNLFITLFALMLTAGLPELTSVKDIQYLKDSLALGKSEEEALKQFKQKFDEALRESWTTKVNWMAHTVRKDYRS

[5] = molecular target: Dual specificity protein kinase CLK1 (Homo sapiens, UniProt P49759); test: Inhibition of CLK mediated SF3B1 activation in human SK-MEL-2 cells assessed as MDM2-pre mRNA exon skipping at 10 uM after 4 hrs by luciferase reporter gene assay relative to control; type: cell-based
Sequence of Dual specificity protein kinase CLK1 (P49759 whole entry, looked up): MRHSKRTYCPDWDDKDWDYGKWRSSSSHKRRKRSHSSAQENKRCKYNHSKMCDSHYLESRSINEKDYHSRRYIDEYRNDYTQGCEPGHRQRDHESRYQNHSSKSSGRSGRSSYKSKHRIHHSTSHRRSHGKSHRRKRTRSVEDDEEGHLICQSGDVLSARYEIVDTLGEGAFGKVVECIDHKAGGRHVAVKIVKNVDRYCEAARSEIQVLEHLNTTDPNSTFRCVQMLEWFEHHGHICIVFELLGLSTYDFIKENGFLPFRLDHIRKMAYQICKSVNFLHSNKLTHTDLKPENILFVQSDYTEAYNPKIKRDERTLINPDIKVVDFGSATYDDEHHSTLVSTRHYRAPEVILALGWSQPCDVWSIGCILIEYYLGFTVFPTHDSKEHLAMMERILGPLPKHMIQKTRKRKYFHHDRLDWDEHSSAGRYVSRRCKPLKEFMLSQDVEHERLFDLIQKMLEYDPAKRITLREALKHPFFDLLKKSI

[6] = molecular target: SRSF protein kinase 1 (Homo sapiens) (UniProt Q96SB4); test: Inhibition of human SRPK1 using RSRSRSRSRSRSRSR as substrate in presence of [gamma-33P]ATP at 1 uM after 40 mins by scintillation counter method
[7] = molecular target: PI3-kinase p110-alpha/p85-alpha (Homo sapiens) (UniProt P27986+P42336); test: Inhibition of human PI3K p110alpha/pI3K p85alpha at 1 uM using PIP2 as substrate in presence of biotinylated PIP3 and ATP and measured after 30 mins by HTRF method; type: protein-complex assay
[8] = molecular target: Tyrosine-protein kinase JAK2 (Homo sapiens) (UniProt O60674); test: Inhibition of human JAK2 using KTFCGTPEYLAPEVRREPRILSEEEQEMFRDFDYIADWC as substrate in presence of [gamma-33P]ATP at 1 uM after 40 mins by scintillation counter method
[9] = molecular target: T1, Tyrosine-protein kinase JAK3 (Homo sapiens) (UniProt P52333); test: Inhibition of human JAK3 using GGEEEEYFELVKKKK as substrate in presence of [gamma-33P]ATP at 1 uM after 40 mins by scintillation counter method
T1 sequence (whole entry): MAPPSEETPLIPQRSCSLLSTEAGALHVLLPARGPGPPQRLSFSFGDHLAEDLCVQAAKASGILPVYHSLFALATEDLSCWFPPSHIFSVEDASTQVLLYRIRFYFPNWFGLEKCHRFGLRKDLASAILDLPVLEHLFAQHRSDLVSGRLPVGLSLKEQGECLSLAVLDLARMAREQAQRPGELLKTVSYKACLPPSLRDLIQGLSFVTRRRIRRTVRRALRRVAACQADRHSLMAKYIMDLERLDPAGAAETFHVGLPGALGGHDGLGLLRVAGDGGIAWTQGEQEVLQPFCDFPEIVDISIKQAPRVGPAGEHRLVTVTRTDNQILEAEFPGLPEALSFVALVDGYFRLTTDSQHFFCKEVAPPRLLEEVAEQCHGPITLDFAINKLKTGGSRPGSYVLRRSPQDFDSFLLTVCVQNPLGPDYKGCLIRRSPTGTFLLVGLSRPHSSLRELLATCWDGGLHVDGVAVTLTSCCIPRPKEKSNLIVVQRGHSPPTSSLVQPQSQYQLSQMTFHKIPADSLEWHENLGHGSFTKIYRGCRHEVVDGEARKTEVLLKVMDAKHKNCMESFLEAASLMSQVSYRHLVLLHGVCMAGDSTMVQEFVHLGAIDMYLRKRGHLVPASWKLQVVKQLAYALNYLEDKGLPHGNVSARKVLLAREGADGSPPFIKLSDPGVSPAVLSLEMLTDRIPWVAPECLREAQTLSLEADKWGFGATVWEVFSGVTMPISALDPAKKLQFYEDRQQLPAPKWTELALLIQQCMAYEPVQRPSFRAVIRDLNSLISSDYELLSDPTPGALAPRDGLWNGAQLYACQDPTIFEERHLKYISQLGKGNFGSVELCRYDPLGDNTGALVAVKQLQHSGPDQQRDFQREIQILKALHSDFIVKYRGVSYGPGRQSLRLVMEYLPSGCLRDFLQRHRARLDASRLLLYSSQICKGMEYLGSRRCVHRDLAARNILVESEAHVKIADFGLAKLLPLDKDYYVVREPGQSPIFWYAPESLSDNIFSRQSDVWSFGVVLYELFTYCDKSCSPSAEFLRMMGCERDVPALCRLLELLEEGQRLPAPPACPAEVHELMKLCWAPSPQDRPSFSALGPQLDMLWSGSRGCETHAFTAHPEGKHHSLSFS

[10] = molecular target: Mitogen-activated protein kinase 8 (Homo sapiens) (UniProt P45983); test: Inhibition of human JNK1alpha1 using ATF2 as substrate in presence of [gamma-33P]ATP at 1 uM after 40 mins by scintillation counter method
Sequence of Mitogen-activated protein kinase 8 (Homo sapiens) (P45983 whole entry): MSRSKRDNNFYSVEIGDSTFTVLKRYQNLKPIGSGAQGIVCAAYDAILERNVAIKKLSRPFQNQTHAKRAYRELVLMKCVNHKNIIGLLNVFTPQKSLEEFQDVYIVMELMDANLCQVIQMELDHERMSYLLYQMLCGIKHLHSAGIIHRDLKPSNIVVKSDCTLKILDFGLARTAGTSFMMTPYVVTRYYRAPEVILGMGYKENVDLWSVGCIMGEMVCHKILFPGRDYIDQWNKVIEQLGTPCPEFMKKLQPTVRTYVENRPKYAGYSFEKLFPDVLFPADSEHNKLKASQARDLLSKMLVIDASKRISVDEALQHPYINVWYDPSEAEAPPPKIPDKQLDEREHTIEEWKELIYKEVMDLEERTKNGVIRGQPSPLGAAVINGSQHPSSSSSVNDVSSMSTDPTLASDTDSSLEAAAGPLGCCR

[11] = molecular target: PI3-kinase p110-delta/p85-alpha (Homo sapiens) (UniProt P27986+O00329); test: Inhibition of human PI3K p110delta/pI3K p85alpha at 1 uM using PIP2 as substrate in presence of biotinylated PIP3 and ATP and measured after 30 mins by HTRF method; type: protein-complex assay
[12] = molecular target: Receptor-type tyrosine-protein kinase FLT3 (Homo sapiens) (UniProt P36888); test: Inhibition of human Flt3 using EAIYAAPFAKKK as substrate in presence of [gamma-33P]ATP at 1 uM after 40 mins by scintillation counter method
CDK4/Cyclin D3 = CDK4/Cyclin D3 (Homo sapiens, UniProt P11802); test: Inhibition of human CDK4/cyclinD3 using Histone H1 as substrate in presence of [gamma-33P]ATP after 40 mins by scintillation counter method; type: protein-complex assay
[13] = molecular target: Mitogen-activated protein kinase 10 (Homo sapiens) (UniProt P53779); test: Inhibition of human JNK3 using substrate in presence of [gamma-33P]ATP at 1 uM after 40 mins by scintillation counter method
[14] = molecular target: ALK tyrosine kinase receptor (Homo sapiens) (UniProt Q9UM73); test: Inhibition of human ALK using casein as substrate in presence of [gamma-33P]ATP at 1 uM after 40 mins by scintillation counter method
[15] = molecular target: Dual specificity protein kinase CLK3 (Homo sapiens, UniProt P49761); test: Inhibition of human CLK3 using ERMRPRKRQGSVRRRV as substrate in presence of [gamma-33P]ATP after 40 mins by scintillation counter method
[16] = molecular target: Macrophage colony-stimulating factor 1 receptor (Homo sapiens) (UniProt P07333); test: Inhibition of human Fms using KKKSPGEYVNIEFG as substrate in presence of [gamma-33P]ATP at 1 uM after 40 mins by scintillation counter method

Sequence of Receptor tyrosine-protein kinase erbB-2 (Homo sapiens) (P04626 whole entry): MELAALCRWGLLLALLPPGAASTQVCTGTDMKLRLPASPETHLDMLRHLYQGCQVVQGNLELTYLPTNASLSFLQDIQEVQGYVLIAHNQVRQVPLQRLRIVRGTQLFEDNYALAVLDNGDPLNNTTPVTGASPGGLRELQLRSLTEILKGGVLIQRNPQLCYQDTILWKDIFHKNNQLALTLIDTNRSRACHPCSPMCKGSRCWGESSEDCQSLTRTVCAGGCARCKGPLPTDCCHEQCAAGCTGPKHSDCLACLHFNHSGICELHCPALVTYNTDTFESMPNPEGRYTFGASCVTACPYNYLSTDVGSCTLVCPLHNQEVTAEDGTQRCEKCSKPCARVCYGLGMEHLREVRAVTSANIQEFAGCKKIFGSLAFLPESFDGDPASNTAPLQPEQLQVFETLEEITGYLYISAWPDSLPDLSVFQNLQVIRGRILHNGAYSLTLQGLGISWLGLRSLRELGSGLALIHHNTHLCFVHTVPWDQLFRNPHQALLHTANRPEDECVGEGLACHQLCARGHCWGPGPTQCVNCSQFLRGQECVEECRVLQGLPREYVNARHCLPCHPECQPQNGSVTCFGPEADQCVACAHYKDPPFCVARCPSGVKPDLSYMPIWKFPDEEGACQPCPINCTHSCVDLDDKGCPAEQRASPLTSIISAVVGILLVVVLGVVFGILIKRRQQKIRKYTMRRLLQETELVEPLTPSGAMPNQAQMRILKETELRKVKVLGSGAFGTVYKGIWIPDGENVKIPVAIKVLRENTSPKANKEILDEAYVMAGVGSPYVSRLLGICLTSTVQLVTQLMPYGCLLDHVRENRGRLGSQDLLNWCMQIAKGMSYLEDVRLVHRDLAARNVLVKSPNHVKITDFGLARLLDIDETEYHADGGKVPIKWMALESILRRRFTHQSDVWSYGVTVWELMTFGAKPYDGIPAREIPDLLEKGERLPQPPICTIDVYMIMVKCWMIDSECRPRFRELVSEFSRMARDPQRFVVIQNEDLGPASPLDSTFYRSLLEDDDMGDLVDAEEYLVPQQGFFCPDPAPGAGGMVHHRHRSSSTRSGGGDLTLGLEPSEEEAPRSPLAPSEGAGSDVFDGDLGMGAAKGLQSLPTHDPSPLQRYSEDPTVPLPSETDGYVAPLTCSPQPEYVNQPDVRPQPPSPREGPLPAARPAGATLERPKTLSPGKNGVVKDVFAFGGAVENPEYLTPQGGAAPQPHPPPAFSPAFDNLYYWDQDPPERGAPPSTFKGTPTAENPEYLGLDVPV

CC(C)n1cnc2c(Nc3cccc(Cl)c3)nc(N[C@@H]3CCCC[C@@H]3N)nc21
inhibition [1]: 0%
inhibition [2]: 9%
inhibition [3]: 4%
inhibition [4]: 4%
fold change (FC) [5]: > 3
inhibition [6]: 48%
inhibition [7]: 5%
inhibition [8]: 2%
inhibition [9]: 4%
inhibition [10]: -1%
inhibition [11]: 3%
inhibition [12]: 90%
IC50 (CDK4/Cyclin D3): 0.541 µM
inhibition [13]: -5%
inhibition [14]: -2%
IC50 [15]: > 1 µM

CC(C)n1cnc2c(Nc3cccc(Cl)c3)nc(N[C@H]3CCCC[C@@H]3N)nc21
inhibition [1]: 2%
inhibition [2]: 49%
inhibition [3]: 1%
inhibition [4]: 5%
fold change (FC) [5]: > 3
inhibition [16]: -1%
inhibition [6]: -1%
inhibition [7]: 2%
inhibition [8]: -6%
inhibition [9]: 0%
inhibition [10]: 3%
inhibition [11]: 2%
inhibition [12]: 19%
IC50 (CDK4/Cyclin D3): > 1 µM
inhibition [13]: 6%
inhibition [14]: 7%
IC50 [15]: > 1 µM

CC(C)n1cnc2c(Nc3cc(N)cc(Cl)c3)nc(N[C@@H]3CCCC[C@@H]3N)nc21 (racemic)
inhibition [1]: 3%
inhibition [2]: 60%
inhibition [3]: -6%
inhibition [4]: 4%
fold change (FC) [5]: > 3
inhibition [16]: 9%
inhibition [6]: 21%
inhibition [7]: 1%
inhibition [8]: 8%
inhibition [9]: 0%
inhibition [10]: -6%
inhibition [11]: 0%
inhibition [12]: 93%
inhibition [13]: -10%
inhibition [14]: 10%
